Laboratory results from patent US7786175B2, “Anti-atherosclerosis composition containing carotenoids and method for inhibiting LDL oxidation” (Lycored Natural Products, priority 2001, dated 2010).

How the values were obtained:
[1] = tested on: LDL; test: Copper ion-induced LDL oxidation, TBARS assay; format: biochemical; details: for effect on LDL oxidation (TBARS), in words: single compounds at low concentration mimicking Lyc-O-Mato: lycopene 10 μg/ml, vitamin E 2.5 μg/ml, β-carotene 0.4 μg/ml
Protocol: (§1) All studied compounds were dissolved in THF to a stock solution of 1 mg/ml. LDL was dialyzed for 24 hours against phosphate buffered-saline (PBS) prior to its oxidation to remove any EDTA that can interfere with the oxidation. LDL (100 μg protein/ml), was incubated in the absence (Control) or presence of increasing concentrations of each one of the studied compounds, as well as, in various combinations including 2, 3 or the 4 constituents at the desired natural distribution. LDL oxidation was induced by the addition of 5 μM of CuSO4, for 2 hours at 37° C. LDL oxidation was terminated by adding 1 mM Na2 EDTA and immediate refrigeration at 4° C. The extent of LDL oxidation was then determined by measuring the amount of thiobarbituric acid reactive substances (TBARS) and of lipid peroxides (PD) formed. Control LDL was supplemented with only THF.
(§2) LDL (100 μg of protein/mL) was pre-incubated for 30 minutes at 37° C. with increasing concentrations of crystalline pure lycopene, or with tomato oleoresin (at equivalent lycopene concentrations), followed by a further incubation for 2 hours at 37° C. in the presence of 5 μmol/L of CuSO4. LDL oxidation was measured by the TBARS (A) or by the lipid peroxides (B) assays respectively. Results are given as mean±SD (n=3). Addition of increasing concentrations of lycopene inhibited copper ion-induced LDL oxidation moderately, in a dose-dependent manner.

[2] = tested on: LDL; test: Copper ion-induced LDL oxidation, lipid peroxides assay; format: biochemical; details: for effect on LDL oxidation (lipid peroxides), in words: single compounds at low concentration mimicking Lyc-O-Mato: lycopene 10 μg/ml, vitamin E 2.5 μg/ml, β-carotene 0.4 μg/ml
Protocol: as §1, §2

[3] = 50 μmol/L of lycopene, LDL 100 μg of protein/mL, 5 μmol/L CuSO4, 2 hours at 37° C.

Compound	maximal inhibition in TBARS formation [1, 3] [%]	effect on LDL oxidation (TBARS), in words [1]	maximal inhibition in lipid peroxides formation [2, 3] [%]	effect on LDL oxidation (lipid peroxides), in words [2]	effect on LDL oxidation, in words ([1]; Example 5: β-carotene alone or in combination with vitamin E)
CC(C)=CCC/C(C)=C/C=C/C(C)=C/C=C/C(C)=C/C=C/C=C(C)/C=C/C=C(C)/C=C/C=C(\C)CCC=C(C)C [lycopene]	22	did not significantly affect LDL oxidation	27	did not significantly affect LDL oxidation	–
CC1=C(/C=C/C(C)=C/C=C/C(C)=C/C=C/C=C(C)/C=C/C=C(C)/C=C/C2=C(C)CCCC2(C)C)C(C)(C)CCC1 [β-carotene]	–	did not significantly affect LDL oxidation	–	did not significantly affect LDL oxidation	did not affect at all LDL oxidation
vitamin E	–	did not significantly affect LDL oxidation	–	did not significantly affect LDL oxidation	–
